Usually Cmax stands for the peak of the concentration-time curve. By AUC(0-inf) is commonly meant total exposure, with the tail of the curve extrapolated. By pIC50 is commonly meant the negative decadic logarithm of the IC50, by convention in mol/L. Usually Tmax stands for the time from dosing to the highest level. As usually defined, the pEC50 is the EC50 on a negative log10 scale, so that one unit is a factor of ten. Broadly, the IC50 is the midpoint of a concentration-inhibition curve.

The source of these data is ChEMBL document CHEMBL1152299, “Indazole-based liver X receptor (LXR) modulators with maintained atherosclerotic lesion reduction activity but diminished stimulation of hepatic triglyceride synthesis” (J Med Chem, 2008).

pEC50, pIC50: −log10 of the molar value. Activity calls are given as the source filed them. No cut-off for these calls is given here. Bounds are passed on as bounds.

Data set [1] can be described thus: Terminal half life in C57 mouse at 10 mg/kg, po. The class given is ADME, organism-based. The settings on record: in vivo, read-out: beta t1/2 (converted). Details: dose 10 mg/kg, route oral.
The next data set concerns HepG2. The experiment in a line: Effect on SREBP1c gene expression in human HepG2 cells relative to TO901317. The class given is functional.
The nature of data set [2]: Bioavailability in C57 mouse at 1 mg/kg, iv and 10 mg/kg, po. To be noted: in vivo. It counts as ADME, organism-based.
Data set [3] is described as follows: Volume of distribution at steady state in C57 mouse at 1 mg/kg, iv and 10 mg/kg, po. The class given is ADME, organism-based. To be noted: in vivo, read-out: Vdss.
Data set [4] is described as follows: Cmax in male C57 mice after 10 mg/kg oral dose. It counts as ADME, organism-based. Details: dose 10 mg/kg, route oral. The settings on record: C57, mouse, in vivo.
Data set [5] can be described thus: AUC (0 to infinity) in C57 mouse at 1 mg/kg, iv and 10 mg/kg, po. It counts as ADME, organism-based. The settings on record: plasma.
A short description of data set [6]: Clearance in C57 mouse at 1 mg/kg, iv and 10 mg/kg, po. The class given is ADME, organism-based. To be noted: in vivo.
Data set [7] deals with T1, Mineralocorticoid receptor (Homo sapiens, UniProt P08235).
T1 sequence (P08235 whole entry): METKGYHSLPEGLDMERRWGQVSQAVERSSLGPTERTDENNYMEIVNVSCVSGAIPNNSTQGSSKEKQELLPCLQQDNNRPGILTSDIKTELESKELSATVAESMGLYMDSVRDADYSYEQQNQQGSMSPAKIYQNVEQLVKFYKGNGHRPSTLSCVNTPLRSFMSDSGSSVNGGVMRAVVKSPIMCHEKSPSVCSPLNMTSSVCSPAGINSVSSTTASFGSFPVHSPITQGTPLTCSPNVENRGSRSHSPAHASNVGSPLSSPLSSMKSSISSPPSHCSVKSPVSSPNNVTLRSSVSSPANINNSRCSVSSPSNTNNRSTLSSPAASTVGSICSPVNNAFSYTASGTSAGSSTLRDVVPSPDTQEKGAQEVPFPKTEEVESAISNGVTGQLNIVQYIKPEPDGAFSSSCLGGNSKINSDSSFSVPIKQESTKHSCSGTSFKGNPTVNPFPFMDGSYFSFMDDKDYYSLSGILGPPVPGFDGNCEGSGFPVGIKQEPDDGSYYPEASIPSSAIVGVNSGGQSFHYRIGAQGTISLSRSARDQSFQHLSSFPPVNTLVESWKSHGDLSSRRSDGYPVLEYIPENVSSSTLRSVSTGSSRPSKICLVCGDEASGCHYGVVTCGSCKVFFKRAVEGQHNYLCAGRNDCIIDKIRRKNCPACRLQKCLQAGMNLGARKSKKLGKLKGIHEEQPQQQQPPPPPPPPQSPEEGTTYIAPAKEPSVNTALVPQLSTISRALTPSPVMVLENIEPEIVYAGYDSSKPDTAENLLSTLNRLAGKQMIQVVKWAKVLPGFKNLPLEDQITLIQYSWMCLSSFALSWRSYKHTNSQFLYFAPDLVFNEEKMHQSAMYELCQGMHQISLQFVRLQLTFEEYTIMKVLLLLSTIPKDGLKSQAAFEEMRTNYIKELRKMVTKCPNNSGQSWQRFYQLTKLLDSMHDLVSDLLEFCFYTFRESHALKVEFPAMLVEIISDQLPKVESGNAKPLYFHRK
The data set can be described thus: Displacement of radiolabeled aldosterone from human mineralocorticoid receptor by filter paper assay.

Another data set concerns Mus musculus. The data set can be described thus: Upregulation of ABCA1 gene expression in LDL receptor knockout C57BL/6 mouse duodenum at 15 mg/kg administered with Western diet. The class given is functional. To be noted: route oral.
A short description of data set [8]: Tmax in C57 mouse at 1 mg/kg, iv and 10 mg/kg, po. It counts as ADME, organism-based. The settings on record: in vivo.
The target of data set [9] is Retinoid X receptor (Homo sapiens) (UniProt P28702+P48443+P19793). The experiment in a line: (§1) Displacement of radiolabeled 9-cis retinoic acid from human RXR by scintillation proximity assay. The class given is protein assay. A general note: In a scintillation proximity assay essentially only radioactivity close to the scintillant gives light.
Data set [10] deals with Oxysterols receptor LXR-alpha (Homo sapiens, UniProt Q13133).
A further data set concerns the target T2, Retinoid X receptor (Homo sapiens, UniProt P28702+P48443+P19793).
T2 sequence (P28702 whole entry): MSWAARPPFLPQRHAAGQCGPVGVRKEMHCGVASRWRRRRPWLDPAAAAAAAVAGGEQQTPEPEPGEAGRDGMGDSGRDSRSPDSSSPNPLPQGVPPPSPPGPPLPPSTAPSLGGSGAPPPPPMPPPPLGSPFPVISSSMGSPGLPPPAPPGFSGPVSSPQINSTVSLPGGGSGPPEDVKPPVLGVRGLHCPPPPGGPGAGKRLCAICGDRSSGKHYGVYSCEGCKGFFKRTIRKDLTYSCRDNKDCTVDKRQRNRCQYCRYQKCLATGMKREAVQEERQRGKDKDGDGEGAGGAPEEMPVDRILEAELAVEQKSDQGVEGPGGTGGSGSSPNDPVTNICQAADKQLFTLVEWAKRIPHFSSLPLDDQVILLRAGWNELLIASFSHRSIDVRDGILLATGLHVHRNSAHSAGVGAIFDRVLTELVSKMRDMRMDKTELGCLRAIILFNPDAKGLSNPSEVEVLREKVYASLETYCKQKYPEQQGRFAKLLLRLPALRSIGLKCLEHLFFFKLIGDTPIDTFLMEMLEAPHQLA
T2 sequence (P48443 whole entry): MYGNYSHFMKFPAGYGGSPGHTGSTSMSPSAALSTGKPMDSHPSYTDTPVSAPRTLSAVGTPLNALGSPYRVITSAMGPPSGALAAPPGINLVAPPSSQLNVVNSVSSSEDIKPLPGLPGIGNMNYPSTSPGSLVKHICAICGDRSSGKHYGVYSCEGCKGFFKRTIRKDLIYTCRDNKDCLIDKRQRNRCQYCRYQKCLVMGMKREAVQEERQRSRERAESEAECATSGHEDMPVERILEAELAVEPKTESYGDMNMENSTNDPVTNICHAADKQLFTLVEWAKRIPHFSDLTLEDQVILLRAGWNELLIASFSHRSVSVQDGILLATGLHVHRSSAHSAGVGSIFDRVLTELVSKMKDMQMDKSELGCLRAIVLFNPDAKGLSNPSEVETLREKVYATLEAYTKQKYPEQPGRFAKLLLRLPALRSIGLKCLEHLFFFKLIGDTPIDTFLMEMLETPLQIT
T2 sequence (P19793 whole entry): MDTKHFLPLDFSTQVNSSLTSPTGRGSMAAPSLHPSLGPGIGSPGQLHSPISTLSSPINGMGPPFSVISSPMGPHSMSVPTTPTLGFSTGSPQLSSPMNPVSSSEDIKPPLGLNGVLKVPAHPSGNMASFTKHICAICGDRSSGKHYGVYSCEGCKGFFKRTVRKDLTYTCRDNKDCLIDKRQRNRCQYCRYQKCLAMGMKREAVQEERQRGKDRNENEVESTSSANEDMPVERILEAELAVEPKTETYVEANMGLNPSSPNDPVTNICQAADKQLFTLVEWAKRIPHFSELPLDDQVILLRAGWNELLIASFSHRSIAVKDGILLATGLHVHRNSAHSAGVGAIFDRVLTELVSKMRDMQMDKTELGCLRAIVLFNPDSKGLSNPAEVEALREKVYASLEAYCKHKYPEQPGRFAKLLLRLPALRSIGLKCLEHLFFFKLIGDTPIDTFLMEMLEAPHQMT
The description is as §1. It counts as protein assay.

Consider `Fc1ccc(-c2c3cccc(C(F)(F)F)c3nn2Cc2ccccc2F)cc1`, for which the half-life in data set [1] is 5.8 h. For the same compound, the Efficacy with HepG2 is 72%. Also, in data set [2], the bioavailability turned out to be 106%. In addition, the Vd in data set [3] is 30.3 L/kg. In data set [4], this compound had a Cmax of 633 ng/mL. Besides, in data set [5], the AUC(0-inf) is 3100 ng·h/mL. The compound also returned a clearance in [6] of 57 mL/min/kg. The pIC50 in [7] was less than 5.00. Further, the “fold change (FC)” value with Mus musculus is reported as 2.3. Also, the Tmax in data set [8] stood at 0.5 h. Moreover, the result in data set [9] was inactive. In [10], this compound gave a pEC50 of 5.21.

With `Fc1ccc(-c2c3cccc(C(F)(F)F)c3nn2Cc2ccc(F)cc2Cl)cc1` [LXR-623], the Efficacy in the data set on HepG2 is recorded as 58%. Besides, on Retinoid X receptor, the concentration for half-maximal inhibition (IC50) was greater than 10 µM. In addition, the pEC50 in data set [10] was 5.18.
